# Patent US7875604B2, “Compounds that inhibit HIV particle formation” (University of Virginia Patent Foundation, priority 2004, dated 2011)
# Like-named read-outs stand apart in the source and are kept apart here.
# What was measured:
# [1] = tested on: HIV particle formation in 5BD.1 cells; assay: Six point dose response assay of HIV particle release (p24 ELISA) in 5BD.1 cells; type: cell-based, HIV-1; details: for TI (TC50/IC50): TC50 MT4 cells / IC50 5BD.1 cells; for IC50: six point dose response, p24 in 5BD.1 cells, Table 1
# Source text: The present invention is directed to a safe quantitative in vitro high-throughput assay to screen library compounds for effects on Rev-dependent p24 production. Two cell lines derived from COS cells provide the means of determining whether a library compound has anti-Rev activity-5BD.1 and 2A.22. These cell lines constitutively express HIV-like particles that contain the HIV core proteins as well as HIV envelope protein. The non-infectious virions created by these cells are secreted into the media, where a simple p24 ELISA can quantitatively determine virion production. Production of these virus-like particles is totally dependent on the expression of the Rev protein (for the 5BD.1 cell line), which is also made in these cell lines, or independent of Rev protein expression (the 2A.22 cell line).
# The cell line 5BD.1 was created by transfecting COS cells with the wild type HIV-1 structural and regulatory genes gag, gagpol, rev, and env. Each of these genes is necessary but not sufficient for producing infectious HIV virions. Non-infectious virions are produced in 5BD.1 cells via the same pathways as in CD4^+ cells. Inhibition of Rev with a library compound would therefore have the same effect on viral production in 5BD.1 cells as in CD4^+ cells.
# Each of the 192 compounds was then subjected to 3 and 6 point dose response assays in 5BD.1 cells and toxicity testing in the MT-4 T cell line. The dose response assay was performed as follows
# • 1. 5BD.1 cells were carried in 2 T175 flasks in medium (IMDM/10% FCS/0.2 mg/ml HygromycinB/1.5 mg/ml G418/0.05 mg/ml gentamycin). Cells were trypsinized and harvested from a 90% confluent flask. • 2. 20,000 cells per well were plated into rows A-G of 8 tissue culture treated clear 96-well plates in 135 μl per well of medium without G418 (assay medium). 135 μl of medium only was added to row H. • 3. The plates were placed into the incubator for one hour. • 4. Compounds were serially diluted 1:3 two times from 1 mM DMSO stocks in DMSO in 96 well polypropylene plates. 8 μl of the DMSO solutions were transferred to another plate and 72 μl of assay medium was added. • 5. 15 μl of each diluted compound was transferred to the cell plates in duplicate with the high (10 μM final concentration in rows A-B, 3 μM concentration in rows C-D, 1 μM concentration in rows E-F and DMSO only in rows G-H). • 6. The plates were then incubated overnight for 16 hours. • 7. In the morning of the next day the medium was removed by hand from all wells. • 8. 135 μl of fresh assay medium was added to each well followed by 15 μl of diluted compounds as described in step 5. • 9. The plates were then incubated for 24 hours and the medium was harvested. p24 ELISA Assay: • 10. Dilute primary antibody to 4 μg/ml in DPBS without calcium and magnesium, add 50 μl per well of a 96 well Maxisorp plate, incubate overnight at 4° C. • 11. Aspirate coating solution, block for 30-60 minutes with 200 μl ELISA buffer (4 mg/ml BSA, 0.01% Tween20 in DPBS without calcium and magnesium). • 12. Wash plates 2×. • 13. Add 50 μl of the supernatants from step 9 above. • 14. Add 15 μl of a 1:750 dilution of biotinylated secondary antibody in 40% lysis buffer/ELISA buffer. • 15. Incubate 2 hours at room temperature with shaking. • 16. Wash plates 3×. • 17. Add 50 μL/well of a 1:10,000 dilution of detection SA-HRP. Incubate at room temperature with shaking for 30 minutes. • 18. Wash plates 3×. Add 50 μL/well of TMB substrate solution to all wells and develop for approximately 15 minutes until blue. • 19. Stop the reaction with 50 μL/well 0.18M sulfuric acid. • 20. Read plate at 450 nm. Toxicity Assays:
# The six point dose assay in 5BD.1 cells was used to calculate an IC50 for the compounds and data from the MT-4 toxicity assay allowed a TC50 to be calculated.
# [2] = MTS staining for PBMC viability to measure cytotoxicity; type: cell-based, human; details: human
# Experimental: For the standard PBMC assay, PHA-P stimulated cells from at least two normal donors were pooled (mixed together), diluted in fresh medium to a final concentration of 1×10^6 cells/mL, and plated in the interior wells of a 96 well round bottom microplate at 50 μL/well (5×10^4 cells/well) in a standard format developed by the Infectious Disease Research department of Southern Research Institute. Pooling (mixing) of mononuclear cells from more than one donor is used to minimize the variability observed between individual donors, which results from quantitative and qualitative differences in HIV infection and overall response to the PHA and IL-2 of primary lymphocyte populations. Each plate contains virus/cell control wells (cells plus virus), experimental wells (drug plus cells plus virus) and compound control wells (drug plus media without cells, necessary for MTS monitoring of cytotoxicity). Since HIV-1 is not cytopathic to PBMCs, this allows the use of the same assay plate for both antiviral activity and cytotoxicity measurements. Test drug dilutions were prepared at a 2× concentration in microtiter tubes and 100 μL of each concentration was placed in appropriate wells using the standard format. 50 μL of a predetermined dilution of virus stock was placed in each test well (final MOI≅0.1). The PBMC cultures were maintained for seven days following infection at 37° C., 5% CO2. After this period, cell-free supernatant samples were collected for analysis of reverse transcriptase activity as a measure of virus release. Following removal of supernatant samples, compound cytotoxicity was measured by addition of MTS to the plates for determination of cell viability. Wells were also examined microscopically and any abnormalities were noted.
# At assay termination, assay plates were stained with the soluble tetrazolium-based dye MTS (CellTiter 96 Reagent, Promega) to determine cell viability and quantify compound toxicity. The mitochondrial enzymes of metabolically active cells metabolize MTS to yield a soluble formazan product. This allows the rapid quantitative analysis of cell viability and compound cytotoxicity. […] At termination of the assay, 20 μL of MTS reagent was added per well. The microtiter plates were then incubated 4-6 hrs at 37° C. The incubation intervals were chosen based on empirically determined times for optimal dye reduction. Adhesive plate sealers were used in place of the lids, the sealed plate was inverted several times to mix the soluble formazan product and the plate was read spectrophotometrically at 490/650 nm with a Molecular Devices Vmax or SpectraMaxPlus plate reader.
# Compounds were tested in the PBMC assay using the maximum high-test concentration possible based on the supplied stocks which are listed in table 3. Compounds were prepared at a 2× high-test concentration by combining drug stock with tissue culture media at a ratio of 5 μL of drug to 995 μL of media. This 2× high-test sample was subsequently serially diluted in tissue culture media using 1/2 log dilutions. This series of 2× concentrated drug was subsequently diluted 1:1 by combining with an equal volume of cells in media in the 96-well plates used for the assay.
# [3] = PBMC plates with HIV-1 BR/93/021, MTS, read-out: TC50
# [4] = PBMC plates with HIV-1 NL4-3, MTS, read-out: TC50
Molecule,TI (TC50/IC50) [1],IC50 [1],IC50 ([1]; Human immunodeficiency virus 1),"CC50 at 7 days [2, 3]","CC50 at 7 days [2, 4]",CC50 at 7 days ([2]; TC50)
"2-chloro-N-(4-methylphenyl)-4-(trifluoromethyl)-1,3-thazole-5-carboxamide [Compound 91161]",9.47,1.9 µM,,,,
"CCc1c(C(=O)Nc2ccccc2)c(C)nc2sc(C(N)=O)c(N)c12 [Compound 75168, 3-amino-4-ethyl-6-methyl-N˜5˜-phenylthieno[2,3-b]pyridine-2,5-dicarboxamide]",>33.3,,3 µM,> 26.8 µM,> 26.8 µM,
"COc1ccc2cc3c(N)n[nH]c3nc2c1 [Compound 89246, 7-methoxy-1H-pyrazolo[3,4-b]quinolin-3-ylamine]",22.22,,0.9 µM,32.7 µM,21.9 µM,
"CCc1c(C)nc2sc(C(N)=O)c(N)c2c1C [Compound 103833, 3-amino-5-ethyl-4,6-dimethylthieno[2,3-b]pyridine-2-carboxamide]",35.6,,0.9 µM,,,> 37.6 µM
"COc1ccc2nc(C(F)(F)F)c(C#N)c(N)c2c1 [Compound 104366, 4-amino-6-methoxy-2-(trifluoromethyl)-3-quinolinecarbonitrile]",11.2,,2.5 µM,24.9 µM,22 µM,
"CS(=O)(=O)c1ncc(-c2ccc(Br)cc2)cn1 [Compound 107129, -(4-bromophenyl)-2-(methylsulfonyl)pyrimidine]",40.0,,0.25 µM,6.26 µM,4.13 µM,
"COc1cccc(NC(=O)c2cc(Cl)nnc2Cl)c1 [Compound 107740, 3,6-dichloro-N-(3-methoxyphenyl)-4-pyridazinecarboxamide]",10.2,,4.9 µM,18.8 µM,14.4 µM,
"Fc1ccc(Nc2ncnc3ccccc23)cc1Cl [Compound 109020, N-(3-chloro-4-fluorophenyl)-N-(4-quinazolinyl)amine]",33.3,,3 µM,,,> 40.8 µM
